Laboratory results as given in US20030096379A1, “Method for producing tryptamine derivatives” (priority 2001, published 2003).

Legend:
[1] = target: T1, synAAAD (synthetic gene based on pkAAAD protein sequence) (Sus scrofa, UniProt P80041); assay: Substrate screen for tryptophan decarboxylation, SynAAAD; type: biochemical; parameters: key: +: a clear ninhydrin-positive spot at the Rf of standard tryptophan derivatives after 16-65 h; (+): a weak spot in the product region; −: no product observed; NR: experiment not run; conditions: tryptophan derivative, PLP, pH 7.5, 37° C.
T1 construct: made in house; host or cells: E. coli (pET-15 vector)
T1 sequence (P80041 1-486): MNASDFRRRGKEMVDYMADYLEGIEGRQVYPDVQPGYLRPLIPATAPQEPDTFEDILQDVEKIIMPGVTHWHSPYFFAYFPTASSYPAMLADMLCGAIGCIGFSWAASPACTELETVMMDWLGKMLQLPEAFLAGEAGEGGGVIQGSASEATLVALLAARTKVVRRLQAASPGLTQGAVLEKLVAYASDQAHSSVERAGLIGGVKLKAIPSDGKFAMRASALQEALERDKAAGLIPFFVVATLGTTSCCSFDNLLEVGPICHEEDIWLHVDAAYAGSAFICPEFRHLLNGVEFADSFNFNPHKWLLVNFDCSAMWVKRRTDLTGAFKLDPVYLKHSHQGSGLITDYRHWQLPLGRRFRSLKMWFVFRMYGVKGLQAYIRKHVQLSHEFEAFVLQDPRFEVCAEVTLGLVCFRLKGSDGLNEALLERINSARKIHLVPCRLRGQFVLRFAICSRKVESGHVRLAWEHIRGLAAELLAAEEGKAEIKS
Procedure: (§1) A mixture containing 1 μmole of the tryptophan derivative, 0.05 μmole of PLP and 50 μmol of L-serine in 40 mM pH 7.5 KPi buffer was warmed to 37° C., then enzyme solution was added to give a final volume of 1 mL. Aliquots (100 HL) were quenched at intervals and were evaporated in a Savant Speed-vac as in Example 6. For TLC analysis, CH2Cl2/EtOH/H2O/HOAc 49:49:1:1 was used as the solvent. The plates were visualized with short-wave UV light and ninhydrin as in Example 6.
(§2) HPLC techniques were used to monitor the decarboxylation of substituted tryptophans. Mass spectral analysis of the collected HPLC peaks was used to confirm the identity of several tryptamine derivatives, as shown in Table 5.

[2] = target: T2, tryptophan decarboxylase TDC1 (Camptotheca acuminata, UniProt P93082); assay: Substrate screen for tryptophan decarboxylation, TDC1; type: biochemical, C. accuminata; parameters: key: +: a clear ninhydrin-positive spot at the Rf of standard tryptophan derivatives after 16-65 h; (+): a weak spot in the product region; −: no product observed; NR: experiment not run; conditions: tryptophan derivative, PLP, pH 7.5, 37° C.
T2 construct: made in house; host or cells: E. coli DH5α (pKK233 plasmid from C. Nessler)
T2 sequence (P93082 1-502): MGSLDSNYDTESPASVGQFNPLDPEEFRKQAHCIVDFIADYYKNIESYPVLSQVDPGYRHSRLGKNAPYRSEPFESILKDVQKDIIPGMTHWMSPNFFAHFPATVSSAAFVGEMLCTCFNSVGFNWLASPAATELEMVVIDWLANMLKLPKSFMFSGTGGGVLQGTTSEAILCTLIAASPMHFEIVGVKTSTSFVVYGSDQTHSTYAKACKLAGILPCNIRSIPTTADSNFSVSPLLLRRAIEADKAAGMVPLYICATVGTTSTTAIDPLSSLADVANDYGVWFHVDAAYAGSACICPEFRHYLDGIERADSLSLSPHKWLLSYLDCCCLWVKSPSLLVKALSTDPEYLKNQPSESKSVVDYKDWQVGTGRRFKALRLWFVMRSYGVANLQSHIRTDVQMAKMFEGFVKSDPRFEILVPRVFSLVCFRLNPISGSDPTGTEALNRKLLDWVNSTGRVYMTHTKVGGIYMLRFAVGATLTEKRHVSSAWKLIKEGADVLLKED
Procedure: as §1, §2

[3] = target: T3, tryptophan decarboxylase TDC2 (Camptotheca acuminata, UniProt P93083); assay: Substrate screen for tryptophan decarboxylation, TDC2; type: biochemical, C. accuminata; parameters: key: +: a clear ninhydrin-positive spot at the Rf of standard tryptophan derivatives after 16-65 h; (+): a weak spot in the product region; −: no product observed; NR: experiment not run; conditions: tryptophan derivative, PLP, pH 7.5, 37° C.
T3 construct: made in house; host or cells: E. coli DH5α (pKK233 plasmid from C. Nessler)
T3 sequence (P93083 1-498): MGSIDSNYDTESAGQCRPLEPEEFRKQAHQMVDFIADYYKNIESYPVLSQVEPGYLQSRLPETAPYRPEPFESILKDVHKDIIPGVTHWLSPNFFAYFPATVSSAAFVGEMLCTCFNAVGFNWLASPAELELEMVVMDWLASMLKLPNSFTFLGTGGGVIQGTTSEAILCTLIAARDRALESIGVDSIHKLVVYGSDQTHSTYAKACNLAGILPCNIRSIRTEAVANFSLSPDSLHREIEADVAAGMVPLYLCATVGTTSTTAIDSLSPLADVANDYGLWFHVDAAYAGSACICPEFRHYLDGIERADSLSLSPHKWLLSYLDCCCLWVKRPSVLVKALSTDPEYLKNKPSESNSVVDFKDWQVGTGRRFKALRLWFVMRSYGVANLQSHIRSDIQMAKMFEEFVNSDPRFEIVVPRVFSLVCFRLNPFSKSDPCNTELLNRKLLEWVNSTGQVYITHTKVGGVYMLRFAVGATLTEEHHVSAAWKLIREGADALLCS
Procedure: as §1, §2

[4] = target: T4, pig kidney aromatic amino acid decarboxylase (pkAAAD) (Sus scrofa, UniProt P80041); assay: Substrate screen for tryptophan decarboxylation, pkAAAD; type: biochemical; parameters: key: +: a clear ninhydrin-positive spot at the Rf of standard tryptophan derivatives after 16-65 h; (+): a weak spot in the product region; −: no product observed; NR: experiment not run; conditions: tryptophan derivative, PLP, pH 7.5, 37° C.
T4 construct: Frozen tissue was partially thawed in lysis buffer, then it was extracted and partially purified; from tissue; host or cells: pig kidney
T4 sequence (P80041 1-486): T1 sequence (P80041 1-486)

TrpBA and TDC1 = assay: Coupled enzyme synthesis monitored by HPLC; type: biochemical; conditions: L-serine, PLP, pH 8.5 phosphate buffer, 37° C.
Procedure: To a solution containing L-serine (25 μmol), pyridoxal phosphate (0.05 μmol) and TrpBA (0.02 to 1.5 units, depending on the substrate), TDC1 (0.2 mL 0.6 units) and KPi buffer (0.05 mmol, pH 7.5) in a volume of 0.8 mL were added […] of 5 mM indole derivative in 20% v/v ethanol/water. The mixture was incubated at 37° C. and aliquots were quenched and analyzed as described for Example 8. In cases where tryptamine and/or tryptophan standards were not available, peaks were collected for mass spectral analysis. Electrospray mass spectral analyses were performed.
Mixtures containing indole, L-serine, PLP and TDC1 were incubated in pH 8.5 phosphate buffer, analyzing aliquots by HPLC, as described in Example 12.
The procedure used in Example 24 was carried out by substituting indole with 2-methylindole, 4-hydroxymethylindole, 5-methoxy-, 5-hydroxymethyl-, 5-methoxycarbonyl, and 5,6-dimethoxyindole.

TrpBA = target: T5, TrpBA (Escherichia coli, UniProt P0A879); assay: Relative rates of tryptophan derivative synthesis by HPLC, TrpBA; type: biochemical, E. coli; conditions: initial rate estimated by HPLC, indole = 100%, L-serine
T5 construct: made in house; host or cells: E. coli LMG194 (pBAD) or BL-21 (pET)
T5 sequence (P0A879 whole entry): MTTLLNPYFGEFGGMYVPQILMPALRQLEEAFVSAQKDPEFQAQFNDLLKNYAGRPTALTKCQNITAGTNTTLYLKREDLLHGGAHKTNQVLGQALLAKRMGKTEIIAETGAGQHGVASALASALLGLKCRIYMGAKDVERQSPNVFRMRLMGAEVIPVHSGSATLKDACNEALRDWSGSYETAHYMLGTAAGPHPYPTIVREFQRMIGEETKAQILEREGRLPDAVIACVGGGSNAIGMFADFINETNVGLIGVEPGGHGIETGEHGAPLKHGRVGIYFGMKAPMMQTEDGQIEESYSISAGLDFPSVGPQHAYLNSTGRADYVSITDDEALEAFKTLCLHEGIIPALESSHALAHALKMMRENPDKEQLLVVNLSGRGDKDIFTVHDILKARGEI
T5 sequence (P0A877 whole entry, further chain): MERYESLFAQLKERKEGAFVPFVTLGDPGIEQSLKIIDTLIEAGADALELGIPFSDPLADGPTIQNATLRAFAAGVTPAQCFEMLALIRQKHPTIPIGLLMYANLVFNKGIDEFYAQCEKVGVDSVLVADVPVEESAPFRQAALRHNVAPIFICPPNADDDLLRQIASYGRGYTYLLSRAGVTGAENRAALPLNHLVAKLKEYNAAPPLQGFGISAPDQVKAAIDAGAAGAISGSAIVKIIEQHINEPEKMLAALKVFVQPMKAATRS
Procedure: Reaction mixtures were prepared as in Example 6 and were incubated at 37° C. Aliquots (100 μL) were removed and quenched by addition of to 300 μL of 0.5 M sodium citrate, pH 3.0 in 10% v/v acetonitrile/water in 2 ml microcentrifuge tubes. Following centrifugation for 10 min at 13,000×g, the supernatants were passed through 0.45μ membrane filters prior to HPLC analysis of 20 μL of filtrate.
TnA reactions were run with L-serine as the 3-carbon substrate.

Compound: NC(Cc1c[nH]c2cc(F)ccc12)C(=O)O (racemic) [DL-6-fluoro-trp]
- SynAAAD (decarboxylation substrate screen) [1]: −
- TDC1 (decarboxylation substrate screen) [2]: −
- TDC2 (decarboxylation substrate screen) [3]: −
- pkAAAD (decarboxylation substrate screen) [4]: −

Compound: COC(=O)Nc1ccc2[nH]cc(C[C@H](N)C(=O)O)c2c1 [L-5-(methoxycarbonyl)-amino-trp, 5-(Methoxycarbonyl)amino-L-tryptophan]
- SynAAAD (decarboxylation substrate screen) [1]: +
- TDC1 (decarboxylation substrate screen) [2]: +
- TDC2 (decarboxylation substrate screen) [3]: +
- pkAAAD (decarboxylation substrate screen) [4]: −

Compound: Cc1cccc2c(CC(N)C(=O)O)c[nH]c12 (racemic) [DL-7-methyl-trp]
- SynAAAD (decarboxylation substrate screen) [1]: (+)
- TDC1 (decarboxylation substrate screen) [2]: +
- TDC2 (decarboxylation substrate screen) [3]: +
- pkAAAD (decarboxylation substrate screen) [4]: −

Compound: N[C@@H](Cc1c[nH]c2cccc(CO)c12)C(=O)O [L-4-(hydroxymethyl)-trp, 4-(Hydroxymethyl)-L-tryptophan]
- SynAAAD (decarboxylation substrate screen) [1]: +
- TDC1 (decarboxylation substrate screen) [2]: +
- TDC2 (decarboxylation substrate screen) [3]: +
- pkAAAD (decarboxylation substrate screen) [4]: (+)

Compound: NC(Cc1c[nH]c2cccc(F)c12)C(=O)O (racemic) [DL-4-fluoro-trp]
- SynAAAD (decarboxylation substrate screen) [1]: (+)
- TDC1 (decarboxylation substrate screen) [2]: +
- TDC2 (decarboxylation substrate screen) [3]: +
- pkAAAD (decarboxylation substrate screen) [4]: +

Compound: 5-(Methoxycarbonylamino)indole [5-(methoxycarbonyl)amino-]
- formation of tryptophan derivative and tryptamine (HPLC peaks) (TrpBA and TDC1): a second peak representing formation of tryptamine

Compound: Cc1ccc2[nH]cc(CC(N)C(=O)O)c2c1 (racemic) [DL-5-methyl-trp]
- SynAAAD (decarboxylation substrate screen) [1]: −
- TDC1 (decarboxylation substrate screen) [2]: +
- TDC2 (decarboxylation substrate screen) [3]: +
- pkAAAD (decarboxylation substrate screen) [4]: −

Compound: Cc1cccc2[nH]cc(CC(N)C(=O)O)c12 (racemic) [DL-4-methyl-trp]
- SynAAAD (decarboxylation substrate screen) [1]: +
- TDC1 (decarboxylation substrate screen) [2]: +
- TDC2 (decarboxylation substrate screen) [3]: +
- pkAAAD (decarboxylation substrate screen) [4]: −

Compound: NC(Cc1c[nH]c2ccc(F)cc12)C(=O)O (racemic) [DL-5-fluoro-trp]
- SynAAAD (decarboxylation substrate screen) [1]: (+)
- TDC1 (decarboxylation substrate screen) [2]: +
- TDC2 (decarboxylation substrate screen) [3]: (+)
- pkAAAD (decarboxylation substrate screen) [4]: −

Compound: Cc1ccc2c(CC(N)C(=O)O)c[nH]c2c1 (racemic) [DL-6-methyl-trp]
- SynAAAD (decarboxylation substrate screen) [1]: (+)
- TDC1 (decarboxylation substrate screen) [2]: +
- TDC2 (decarboxylation substrate screen) [3]: +
- pkAAAD (decarboxylation substrate screen) [4]: −

Compound: Cc1ccc2[nH]ccc2c1 [5CH3]
- Relative rate (TrpBA) (TrpBA): 0.55%

Compound: N[C@@H](Cc1c[nH]c2ccc(O)cc12)C(=O)O [L-5-hydroxy-trp, L-5-hydroxytryptophan, reference compound]
- SynAAAD (decarboxylation substrate screen) [1]: +
- TDC1 (decarboxylation substrate screen) [2]: +
- pkAAAD (decarboxylation substrate screen) [4]: +
